Assay results: patent US6080772A, “Thiazole compounds and methods of modulating signal transduction” (Sugen, Inc., priority 1997, dated 2000)
Where “and” joins values, the source holds several entries; their conditions need not be identical. Equal entries are not always repeated. Where two headings read alike, the source gives them in different places.

What was measured:
insulin receptor (IR) = experiment: Phosphotyrosine enzyme linked immunosorbent assay: pTyr on insulin receptor in NIH3T3 cells over-expressing human IR (H25 cells); conditions: for ACTIVITY (compared to control) / CONC.: Table I; for CONC.: concentration of the compound which produces the percentage increase in phosphotyrosine over the vanadate control, 90 min incubation, no insulin; for EC50: read-out: ACTIVITY EC50; for one point determination, effect on PTYR: at 100 μm
primary adipocytes = experiment: Primary adipocyte glucose uptake assay (14C glucose); conditions: test compound 50 mM without insulin, compared to samples containing only insulin (final concentration=100 μm)

| SMILES | EC50 (insulin receptor (IR); Table II, […], no lot stated) [µM] | CONC. (insulin receptor (IR)) | response in the primary adipocyte glucose uptake assay compared with the insulin control (primary adipocytes) | other results |
| --- | --- | --- | --- | --- |
| O=[N+]([O-])c1cnc(Sc2nc(-c3ccc(Cl)cc3)n[nH]2)s1 [Compound 4, 3-(4-chlorophenyl)-5-[(5-nitrothiazol-2-yl)mercapto]-1,2,4-triazole] | 15 to 49 | 100 µM | did not give a response greater than or equal to the insulin control | ACTIVITY (compared to control) (insulin receptor (IR); […]): 30% |
| O=[N+]([O-])c1cnc(Sc2nnc(O)n2-c2ccccc2)s1 [Compound 5, 3-hydroxy-5-[(5-nitrothiazol-2-yl)mercapto]-4-phenyl-1,2,4-triazole] | 13 to 20 | 13 µM | did not give a response greater than or equal to the insulin control | ACTIVITY (compared to control) (insulin receptor (IR); […]): 30% |
| O=[N+]([O-])c1cnc(Sc2nnc(O)n2C2CCCCC2)s1 [Compound 6, 4-Cyclohexyl-3-hydroxy-5-[(5-nitrothiazol-2-yl)mercapto]-1,2,4-triazole] |  | 100 µM | did not give a response greater than or equal to the insulin control | ACTIVITY (compared to control) (insulin receptor (IR); […]): 30%; increase (PTYR) (insulin receptor (IR); Table II, at 100 μM): 50% |
| O=[N+]([O-])c1cnc(Sc2nnc(O)n2Cc2ccccc2)s1 [Compound 7] | 13 | 200 µM and 100 µM | did not give a response greater than or equal to the insulin control |  |
| O=[N+]([O-])c1cnc(Sc2nnc(O)n2-c2ccccc2C(F)(F)F)s1 [Compound 8, 3-hydroxy-5-[(5-nitrothiazol-2-yl)mercapto]-4-[2-(trifluoromethyl)phenyl]-1,2,4-triazole] |  | 24 µM | did not give a response greater than or equal to the insulin control | ACTIVITY (compared to control) (insulin receptor (IR); […]): 30% |
| CCn1nc(C)cc1-c1nnc(Sc2ncc([N+](=O)[O-])s2)n1CCCOC [Compound 9, 3-(1-ethyl-3-methylpyrazol-5-yl)-4-(3-methoxy-n-propyl)-5-[5-(nitrothiazol-2-yl)mercapto]-1,2,4-triazole] |  | 3.9 µM | did not give a response greater than or equal to the insulin control | ACTIVITY (compared to control) (insulin receptor (IR); […]): 50%; EC50 (insulin receptor (IR); Table II, LOT 2): 6 µM; EC50 (insulin receptor (IR); Table II, LOT3): 16 µM |
| Cn1ccnc1Sc1ncc([N+](=O)[O-])s1 [Compound 13, 1-Methyl-2-[(5-nitrothiazol-2-yl)mercapto]imidazole] |  |  | did not give a response greater than or equal to the insulin control | EC50 (insulin receptor (IR); Table II, LOT 1): 13 µM; EC50 (insulin receptor (IR); Table II, LOT 2): 14 µM |
| Cn1nnnc1Sc1ncc([N+](=O)[O-])s1 [Compound 15] |  |  | did not give a response greater than or equal to the insulin control | increase in PTYR (insulin receptor (IR); Table II, at 50 μM, LOT2): 40%; EC50 (insulin receptor (IR); Table II, LOT 1): 8.4 µM |
| O=[N+]([O-])c1cnc(Sc2nc3ccccc3[nH]2)s1 [Compound 79, 2-[(5-Nitrothiazol-2-yl)mercapto]benzimidazole] |  |  | did not give a response greater than or equal to the insulin control | EC50 (insulin receptor (IR); Table III, […]): 23 µM |
| Cc1nccc(C(F)(F)F)c1-c1nnc(Sc2ncc([N+](=O)[O-])s2)o1 [Compound 86, 2-[2-Methyl-4-(trifluoromethyl)pyrid-3-yl]-5-[(5-nitrothiazol-2-yl)mercapto]-1,3,4-oxadiazole] |  |  | did not give a response greater than or equal to the insulin control | increase in PTYR (insulin receptor (IR); Table II, at 25 μM): 59% |
| Cn1c(O)nnc1Sc1ncc([N+](=O)[O-])s1 [Compound 99] |  |  | did not give a response greater than or equal to the insulin control | one point determination, effect on PTYR (insulin receptor (IR); Table II): no effect |
| CCCCCn1c(O)nnc1Sc1ncc([N+](=O)[O-])s1 [Compound 100] |  |  | did not give a response greater than or equal to the insulin control | one point determination, effect on PTYR (insulin receptor (IR); Table II): no effect |

Continued, in another order:

| EC50 (insulin receptor (IR); Table II, […], no lot stated) [µM] | SMILES | CONC. (insulin receptor (IR)) | response in the primary adipocyte glucose uptake assay compared with the insulin control (primary adipocytes) | other results |
| --- | --- | --- | --- | --- |
| 8 | Nc1nnc(Sc2ncc([N+](=O)[O-])s2)s1 [Compound 14] |  | did not give a response greater than or equal to the insulin control |  |
| 8.8 | O=[N+]([O-])c1cnc(Sc2ncc(C(F)(F)F)cn2)s1 [Compound 83, 2-[(5-Nitrothiazol-2-yl)mercapto]-5-(trifluoromethyl)pyrimidine] |  | did not give a response greater than or equal to the insulin control |  |
| > 100 | CC(C)n1c(Sc2ncc([N+](=O)[O-])s2)nc2ccccc21 [Compound 94, 1-Isopropyl-2-[(5-nitrothiazol-2-yl)mercapto]benzimidazole] |  | did not give a response greater than or equal to the insulin control |  |
| > 100 | CC(C)n1c(Sc2ncc([N+](=O)[O-])s2)nc2cc(C(F)(F)F)ccc21 [Compound 95, 1-Isopropyl-2-[(5-nitrothiazol-2-yl)mercapto]-5-(trifluoromethyl)benzimidazole] |  | did not give a response greater than or equal to the insulin control |  |
| 7 to 15 | O=[N+]([O-])c1cnc(Sc2nc3cnccc3[nH]2)s1 [Compound 101] |  | did not give a response greater than or equal to the insulin control |  |
